# Reference: patent US20250387494A1, “Prodrugs Based On Tumor Targeting Near Infrared Dye-Drug Conjugates (DDC)” (Lahjavida, Inc., priority 2022, published 2025)
# Key:
# [1] = test system: SW620 tumor; assay: Tumor growth inhibition, intravenous tail injection; format: in vivo, mice; design: key to Tumor size: tumor size in mm^3; conditions: for Tumor size: i.v. 10 mg/kg, second dose 15 mg/kg on Day 11; for Tumor increase rate: i.v.; for tumor growth rate: intravenous
# Protocol: (§1) Thirty-nine (39) female athymic nude mice were injected subcutaneously with 10×10^6 SW620 cells in 0.1 ml PBS with 20% Matrigel on the right flank. When the tumor size reaches within the range of approximately ˜70-200 mm^3, mice were sorted as day 0. Thirty (30) mice were randomized into five (5) groups of six (6) mice per group and dosed singly (I.V.) with the test articles or the vehicle control (This day is Day 1: treatment starts). Administrations of Vehicle (saline), NIR dye (“Dye3” in Table 2), Irinotecan, NIR dye-linker-SN38 (XV), and NIR dye-linker Doxo (XVI) are described in Table 6. Before treatment starts/randomization of mice, the 6 mice whose tumors were getting within the range first were used to determine the maximum tolerated dose (MTD) or dose level of two articles NIR day-linker-SN38 (XV), and NIR dye-linker Doxo (XVI), 3 mice for each.
# (§2) Tumor size will be assessed daily, and once noticed palpably, the tumor measurements/body weight started daily up to the randomization day, and before randomization, to get 6 mice as mentioned above for the MTD study, and NIR imaging. After randomization, tumor size and body weight were assessed three times a week (M, W, F) for the duration of the study. Monitoring: a), Record BW on M, W, and F; b). Record signs of distress daily; c). Record tumor size M, W, F; d). In vivo NIR imaging (Group 1, 2, 4, and 5): Ex: 780 nm, Em: 810 nm, on day 1:0.5 hr, 2 hr, 4 hr, 8 hr post day 1 dosing, then 24 hr (day 2), then in vivo imaging, every M, W, and F, until the study ended on day 35.
# (§3) The mice were injected with the said compounds either via intravenous tail injection or with intratumor injection for. Two studies were carried out: one was the compounds uptake study by the tumor as judged by the NIR imaging of both the whole mice body (FIGS. 10A, 10B, 11A, and 11B) and of the mice organs (FIGS. 12A, 12B, 13A, 13B, 14A and 14B). The injection method for these study was via intravenous tail injection. The second was the efficacy evaluation of these compounds as judged by their tumor growth inhibition, the injection method for these study was via both intravenous tail injection and intratumor injection.
# [2] = test system: SW620 tumor; assay: Tumor growth inhibition, intratumor injection; format: in vivo, mice; conditions: for Tumor increase rate: intratumor 15 mg/kg; for Tumor size / tumor growth rate: intratumor injection 15 mg/kg
# Protocol: as §1, §2, §3
# [3] = test system: SW620 tumor; assay: In vivo NIR fluorescent imaging of whole body and organs; conditions: for tumor accumulation, whole body NIR imaging: intravenous tail injection, 11 days after second dosing at 15 mg/kg; for tumor accumulation, whole body NIR imaging / NIR fluorescent signal in tumor (organ imaging) / NIR signal (organ imaging): 10 s exposure
# Protocol: as §1, §2
# Mice were euthanized on day 35 or mice will be sacrificed when tumor size was more than 2000 mm^3. On termination day, NIR imaging of various organs of 3 mice (if the remaining mice >3) from each group 1, 2, 4 and 5. For each mouse: the tumor, heart, liver, spleen, lungs, kidneys, and brain are imaged at the same time.
# as §3
# [4] = test system: 2D lung cancer cell line (A549); assay: Compound uptake study by NIR mean intensity; format: cell-based; conditions: 5 μM, compared with control dyes Dye 1 and Dye 2, all time points
# Protocol: The tumor cells were seeded in a chamber and incubated for 24 h at 37° C. under 5% CO2. After removal of medium, cells were treated with the test materials at 5 μM concentration. When reaching the time points, cells were washed with PBS three times, then fluorescent images were taken under a fluorescent microscope.
# (§4) The tumor-targeting ability and therapeutic efficacy of a four additional DDC prodrugs together with the controls of two corresponding NIR dyes, as well as two chemotherapeutic drugs were explored (Table 6) in 2D lung cancer cell line (A549) studies.
# (§5) The cell lines were dosed with 5 μM of said compounds. Two studies were carried out: one was the compounds uptake study by the tumor cell line as judged by both the NIR intensity mean (FIG. 6) and by nuclei counts (FIG. 7) per well over time.
# [5] = test system: 2D lung cancer cell line (A549); assay: Compound uptake/toxicity study by nuclei counts; format: cell-based; conditions: 5 μM, over all the time points
# Protocol: Cell viability assay was measured using Cell Titer-Glo luminescent cell ability kit via two parameters: Hoechst nuclei counts via imaging, and 2D Celltiter-glo measuring ATP content from live cells. IC50 values were calculated with a 4-variable curve analysis.
# as §4, §5
# [6] = Day 4 vs Day 1 (cell stands under Day 1)
# [7] = Day 6 vs Day 4 (cell stands under Day 4)
# [8] = Day 8 vs Day 6 (cell stands under Day 6)
# [9] = Day 11 vs Day 8 (cell stands under Day 8)
# [10] = Day 13 vs Day 11 (cell stands under Day 11)
# [11] = Day 15 vs Day 13 (cell stands under Day 13)
# [12] = Day 18 vs Day 15 (cell stands under Day 15)
# [13] = Day 20 vs Day 18 (cell stands under Day 18)
structure (smiles),measurement,setting,value
"CCCCN1/C(=C/C=C2\CCCC(/C=C/C3=[N+](CCCCS(=O)(=O)[O-])c4ccccc4C3(C)C)=C2SCCC(=O)NCCC(=O)N2Cc3ccccc3-c3nnn(CCOCCOCCOCCOCCOCCOCCOCCOCCNC(=O)COCC(=O)N[C@H](C(=O)N[C@@H](CCCNC(N)=O)C(=O)Nc4ccc(COC(=O)Oc5ccc6nc7c(c(CC)c6c5)Cn5c-7cc6c(c5=O)COC(=O)[C@]6(O)CC)cc4)C(C)C)c3-c3ccccc32)C(C)(C)c2ccccc21 [Compound XV, Dye1-PEG8-Val-Cit-PABA-SN-38]",Tumor size,[1]; Day 1,163.7
same,Tumor size,[1]; Day 4,235.4
same,Tumor size,[1]; Day 6,364.9
same,Tumor size,[1]; Day 8,794.5
same,Tumor size,[1]; Day 11,988.8
same,Tumor size,[1]; Day 13,11114.9
same,Tumor size,[1]; Day 15,1193.3
same,Tumor size,[1]; Day 18,1239.1
same,Tumor size,[1]; Day 20,1342.1
same,Tumor increase rate,[1]; [6],44%
same,Tumor increase rate,[1]; [7],55%
same,Tumor increase rate,[1]; [8],118%
same,Tumor increase rate,[1]; [9],25%
same,Tumor increase rate,[1]; [10],12.7%
same,Tumor increase rate,[1]; [11],7%
same,Tumor increase rate,[1]; [12],3.8%
same,Tumor increase rate,[1]; [13],8.3%
same,tumor growth rate,"[1]; after the second dose (15 mg/kg, Day 11), low",4%
same,tumor growth rate,[1]; before the second dose,63%
same,Tumor increase rate,[2]; [6],44%
same,Tumor increase rate,[2]; [7],55%
same,Tumor increase rate,[2]; [8],118%
same,Tumor increase rate,[2]; [9],25%
same,Tumor increase rate,[2]; [10],12.7%
same,Tumor increase rate,[2]; [11],7%
same,Tumor increase rate,[2]; [12],3.8%
same,Tumor increase rate,[2]; [13],8.3%
same,Tumor size,[2]; Day 1,163.7 mm^3
same,Tumor size,[2]; Day 4,235.4 mm^3
same,Tumor size,[2]; Day 6,364.9 mm^3
same,Tumor size,[2]; Day 8,794.5 mm^3
same,Tumor size,[2]; Day 11,988.8 mm^3
same,Tumor size,[2]; Day 13,11114.9 mm^3
same,Tumor size,[2]; Day 15,1193.3 mm^3
same,Tumor size,[2]; Day 18,1239.1 mm^3
same,Tumor size,[2]; Day 20,1342.1 mm^3
same,tumor growth rate,[2]; as low as,1%
same,tumor growth rate,[2]; initial,63%
same,"tumor accumulation, whole body NIR imaging",[3],accumulate selectively in the tumor sites
same,organ NIR fluorescent signal,"[3]; second dose 15 mg/kg, 24 hr after intravenous tail injection, auto exposure",the tumor showed the strongest NIR fluorescent signal among all the organs
same,uptake by NIR Mean Intensity,[4],taken up well
"CCCCN1/C(=C/C=C2\CCCC(/C=C/C3=[N+](CCCCS(=O)(=O)[O-])c4ccccc4C3(C)C)=C2SCCC(=O)NCCC(=O)N2Cc3ccccc3-c3nnn(CCOCCOCCOCCOCCOCCOCCOCCOCCNC(=O)COCC(=O)N[C@H](C(=O)N[C@@H](CCCNC(N)=O)C(=O)Nc4ccc(COC(=O)N[C@@H]5CC(O[C@@H]6C[C@@](O)(C(=O)CO)Cc7c(O)c8c(c(O)c76)C(=O)c6c(OC)cccc6C8=O)O[C@H](C)[C@H]5O)cc4)C(C)C)c3-c3ccccc32)C(C)(C)c2ccccc21 (stereo partly drawn) [Compound XVI, Dye1-PEG8-Val-Cit-PABA-Doxorubicin]",Tumor increase rate,[2]; Day 3 vs Day 1 (cell stands under Day 1),63%
same,Tumor increase rate,[2]; Day 5 vs Day 3 (cell stands under Day 3),1.1%
same,Tumor increase rate,[2]; Day 8 vs Day 5 (cell stands under Day 5),2.4%
same,Tumor increase rate,[2]; Day 10 vs Day 8 (cell stands under Day 8),5.5%
same,Tumor size,[2]; Day 1 (Table 10 schedule),855.4 mm^3
same,Tumor size,[2]; Day 3,1393.5 mm^3
same,Tumor size,[2]; Day 5,1409 mm^3
same,Tumor size,[2]; Day 8 (Table 10 schedule),1443 mm^3
same,Tumor size,[2]; Day 10,1523.7 mm^3
same,tumor growth rate,[2]; as low as,0.4%
same,tumor growth rate,[2]; initial,24%
same,NIR fluorescent signal in tumor (organ imaging),"[3]; first dose 10 mg/kg, day 17 after intravenous tail injection",strong NIR fluorescent signals
same,"tumor accumulation, whole body NIR imaging",[3],accumulate selectively in the tumor sites
same,NIR fluorescent signal in tumor (organ imaging),"[3]; second dose 15 mg/kg, day 7 after intravenous tail injection, versus first dose day 17",more intense
same,uptake by NIR Mean Intensity,[4],taken up well
CCCCN1/C(=C/C=C2\CCCC(/C=C/C3=[N+](CCCCS(=O)(=O)[O-])c4ccccc4C3(C)C)=C2SCCC(=O)O)C(C)(C)c2ccccc21 [Dye 1],NIR signal (organ imaging),"[3]; first dose 4.37 mg/kg, day 17 after intravenous tail injection",no NIR signals
same,NIR signal (organ imaging),"[3]; second dose 4.37 mg/kg, day 7 after intravenous tail injection",strong NIR signals
same,toxicity by Nuclei Counts,[5],not toxic
COC(=O)CCSC1=C(/C=C/C2=[N+](CCCCS(=O)(=O)[O-])c3ccccc3C2(C)C)CCC/C1=C\C=C1\N(CCCCCC(=O)O)c2ccccc2C1(C)C [Dye 2],toxicity by Nuclei Counts,[5],not toxic
